pIC50: −log10 of the molar value.
Target: T1, PTP1B (Homo sapiens, UniProt P18031)
T1 construct: in order to express 1-321 amino acid region encoding enzyme active domain of PTP1B; made in house; host or cells: E. coli BL21 DE3 pLysS
T1 sequence (P18031 1-321): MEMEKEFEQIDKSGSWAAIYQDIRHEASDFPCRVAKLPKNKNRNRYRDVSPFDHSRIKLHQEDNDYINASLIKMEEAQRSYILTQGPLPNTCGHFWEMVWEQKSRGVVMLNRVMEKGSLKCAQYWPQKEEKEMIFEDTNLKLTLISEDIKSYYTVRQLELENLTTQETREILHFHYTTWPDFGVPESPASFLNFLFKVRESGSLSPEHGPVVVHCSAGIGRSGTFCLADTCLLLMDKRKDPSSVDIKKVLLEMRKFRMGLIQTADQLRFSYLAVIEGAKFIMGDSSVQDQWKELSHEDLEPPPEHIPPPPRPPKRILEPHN
Experiment: Measurement of PTP1B Inhibitory Activity (dephosphorylation of p-nitrophenylphosphate, absorbance at 405 nm)
Assay type: biochemical
Details: PTP1B enzyme active domain (1-321 amino acid, 6 histidine residues at C-terminal), pNPP substrate, pH 6.5, 37° C. for 1 hour
Protocol: Based on the sequence of human PTP-1B registered in Genbank (M31724) database, primer 1 and primer 2 were synthesized, and PTP1B cDNA was amplified from human skeletal muscle cDNA library (Clonetech, Inc. HL5002a) according to PCR method using these primers. The cycle of reactions at 98° C. for 10 seconds, at 58° C. for 30 seconds and at 72° C. for 90 seconds was repeated 35 cycles. The PCR reaction product (1322 bp) was cloned to pT7 Blue-T vector (Novagen, Inc.) to identify the base sequence.
Human PTP 1B cDNA (1322 bp) (100 ng) was amplified with primer 3 and primer 4 in order to express 1-321 amino acid region encoding enzyme active domain of PTP1B. The PCR reaction product (976 bp) was cloned to pT7 Blue-T vector (Novagen, Inc.) to identify the base sequence.
The pT7 Blue-T vector-human PTP1B cDNA (976 bp) was cleaved with restriction enzymes NdeI and SalI (Takara Shuzo Co., Ltd.) and subjected to electrophoresis using 0.7% agarose gel, and a 969 bp fragment was excised and purified. The fragment was introduced into pET32a (+) vector (Novagen, Inc.) cleaved with restriction enzymes NdeI and XhoI (Takara Shuzo Co., Ltd.), to constitute a vector pET32a (+)-human PTP1B cDNA (969 bp), which expresses PTP1B (321 amino acid) with 6 histidine residues binded to a C-terminal thereof under a control of T7 lac promotor.
E.coli BL21 DE3 pLysS (Novagen, Inc.) was transformed with the pET32a (+)-human PTP 1B cDNA (969 bp) to give an ampicillin (50 μg/ml) resistant bacterium. This was shake cultured at 37° C. using 5L of 2xYT medium (ampicillin (50 μg/ml)). When OD600nm reached to 0.5, IPTG (Isopropyl b-D-Thiogalactoside) was added to the culture medium so as to be 1 mM in order to induce the expression of protein, and this medium was further cultured at 37° C. overnight. The bacterium was collected by centrifugation (8000 rpm, 10 minutes, 4° C.).
The bacterium was suspended in lysis buffer (50 ml) (20 mM Tris HCl (pH 8.0), 0.5 M NaCl, 1 mM PMSF, 5 mM benzamidine, Lysozyme 5 mg) and crushed by sonication. To the supernatant after centrifuging (12000 rpm, 10 minutes, 4° C.) was added imidazole so as to be 50 mM and the mixture was mixed with His Bind resin (Novagen, Inc.) binded with Ni ion (4° C., overnight). The mixture was washed with 200 ml of (20 mM Tris HCl (pH 8.0), 0.5 M NaCl, 1 mM PMSF, 5 mM benzamidine, 50 mM imidazole), eluted with (20 mM Tris HCl (pH 8.0), 0.5 M NaCl, 1 mM PMSF, 5 mM benzamidine, 400 mM imidazole) and concentrated by centrifugation using Ultrafree-15 Biomax-50 (MILLIPORE Corp.) (11 mg/ml, 4ml). The purified protein (PTP1B) was identified by Western blotting method using SDS-PAGE, coomassie Blue stain and anti-PTP1B antibody (UBI Inc.).
The PTP1B inhibitory activity of the test compound was evaluated by measuring the ability of the test compound to dephosphorylate p-nitrophenylphosphate (pNPP) (a change of the absorbance at 405 nm).
To a buffer for measurement of the activity (0.1 M sodium acetate (pH 6.5), 1 mM EDTA, 10 mM DTT) (10 ml) was added PTP1B enzyme solution (2 μl) and the mixture was added to each well of a 96-well microtiter plate (100 μl each). A solution of the test compound in DMSO (10 μl) and 2 mM pNPP/the buffer for measurement of the activity (90 μl) were then added to each well, and the absorbance at 405 nm was measured. After keeping at 37° C. for 1 hour, the absorbance was measured again to evaluate a change of the absorbance. Regarding the change of the absorbance in the absence of the test compound as 100%, the concentration of the compound necessary for 50% inhibition (IC50 value) was calculated.

Compound | pIC50
O=C(O)[C@@H](Cc1ccccc1)Oc1ccc(-c2cccn2-c2ccc(Br)cc2)cc1 [Example 2, (2R)-2-{4-[1-(4-Bromophenyl)-1H-pyrrol-2-yl]phenoxy}-3-phenylpropanoic acid] | 6.05
Cc1ccc(-c2ccc(/C=C/C(=O)O)cc2)n1-c1ccc(/C=C/C(=O)O)cc1 [Example 4, (2E)-3-[4-(1-{4-[(1E)-2-Carboxyethenyl]phenyl}-5-methyl-1H-pyrrol-2-yl)phenyl]-2-propenoic acid] | 5.19
Cc1ccc(-c2ccc(O[C@H](Cc3ccccc3)C(=O)O)cc2)n1-c1ccc(Br)cc1 [Example 6, (2R)-2-{4-[1-(4-Bromophenyl)-5-methyl-1H-pyrrol-2-yl]phenoxy}-3-phenylpropanoic acid] | 6.30
Cc1ccc(-c2cc(Br)c(O[C@H](Cc3ccccc3)C(=O)O)c(Br)c2)n1-c1ccc(Br)cc1 [Example 8, (2R)-2-{2,6-Dibromo-4-[1-(4-bromophenyl)-5-methyl-1H-pyrrol-2-yl]phenoxy}-3-phenylpropanoic acid] | 6.42
Cc1ccc(-c2ccc(-c3ccc(O[C@H](Cc4ccccc4)C(=O)O)cc3)cc2)n1-c1ccc(Br)cc1 [Example 10, (2R)-2-({4′-[1-(4-Bromophenyl)-5-methyl-1H-pyrrol-2-yl][1,1′-biphenyl]-4-yl}oxy)-3-phenylpropanoic acid] | 6.47
O=C(O)CCc1ccc(-c2cccn2-c2ccc(CCC(=O)O)cc2)cc1 [Example 14, 3-(4-{1-[4-(2-Carboxyethyl)phenyl]-1H-pyrrol-2-yl}phenyl)propanoic acid] | 5.23
O=C(O)[C@@H](Cc1ccccc1)Oc1ccc(-c2cccn2-c2ccc(O[C@H](Cc3ccccc3)C(=O)O)cc2)cc1 [Example 16, (2R)-2-{4-[1-(4-{[(1R)-1-Carboxy-2-phenylethyl]oxy}phenyl)-1H-pyrrol-2-yl]phenoxy}-3-phenylpropanoic acid] | 6.39
O=C(O)[C@@H](Cc1ccccc1)Oc1ccc(-n2cccc2-c2ccc(Br)cc2)cc1 [Example 18, (2R)-2-{4-[2-(4-bromophenyl)-1H-pyrrol-1-yl]phenoxy}-3-phenylpropanoic acid] | 6.00
CCc1ccc(-c2ccc(O[C@H](Cc3ccccc3)C(=O)O)cc2)n1-c1ccc(Br)cc1 [Example 20, (2R)-2-{4-[1-(4-bromophenyl)-5-ethyl-1H-pyrrol-2-yl]phenoxy}-3-phenylpropanoic acid] | 6.28
O=C(O)[C@@H](Cc1ccccc1)Oc1ccc(-c2ccc(-c3ccccc3)n2-c2ccc(Br)cc2)cc1 [Example 22, (2R)-2-{4-[1-(4-Bromophenyl)-5-phenyl-1H-pyrrol-2-yl]phenoxy}-3-phenylpropanoic acid] | 6.15
Cc1cc(-c2ccc(O[C@H](Cc3ccccc3)C(=O)O)cc2)n(-c2ccc(Br)cc2)c1C [Example 24, (2R)-2-{4-[1-(4-Bromophenyl)-4,5-dimethyl-1H-pyrrol-2-yl]phenoxy}-3-phenylpropanoic acid] | 6.49
Cc1cc(C)n(-c2ccc(Br)cc2)c1-c1ccc(O[C@H](Cc2ccccc2)C(=O)O)cc1 [Example 26, (2R)-2-{4-[1-(4-Bromophenyl)-3,5-dimethyl-1H-pyrrol-2-yl]phenoxy}-3-phenylpropanoic acid] | 6.38
CCCc1cc(C)n(-c2ccc(Br)cc2)c1-c1ccc(O[C@H](Cc2ccccc2)C(=O)O)cc1 [Example 28, (2R)-2-{4-[1-(4-Bromophenyl)-5-methyl-3-propyl-1H-pyrrol-2-yl]phenoxy}-3-phenylpropanoic acid] | 6.32
Cc1cc(-c2ccccc2)c(-c2ccc(O[C@H](Cc3ccccc3)C(=O)O)cc2)n1-c1ccc(Br)cc1 [Example 30, (2R)-2-{4-[1-(4-Bromophenyl)-5-methyl-3-phenyl-1H-pyrrol-2-yl]phenoxy}-3-phenylpropanoic acid] | 6.14
Cc1ccc(-c2ccc(O[C@H](Cc3c[nH]c4ccccc34)C(=O)O)cc2)n1-c1ccc(Br)cc1 [Example 32, (2R)-2-{4-[1-(4-Bromophenyl)-5-methyl-1H-pyrrol-2-yl]phenoxy}-3-(1H-indol-3-yl)propanoic acid] | 5.68
CCCc1ccc(-c2ccc(O[C@H](Cc3ccccc3)C(=O)O)cc2)n1-c1ccc(Br)cc1 [Example 34, (2R)-2-{4-[1-(4-Bromophenyl)-5-propyl-1H-pyrrol-2-yl]phenoxy}-3-phenylpropanoic acid] | 5.96

Other lines, results leading:

pIC50 | Compound
5.84 | O=C(O)[C@@H](Cc1ccccc1)Oc1ccc(-c2cccn2-c2ccccc2)cc1 [Example 36, (2R)-2-[4-(1-Phenyl-1H-pyrrol-2-yl)phenoxy]-3-phenylpropanoic acid]
5.80 | Cc1ccc(-n2cccc2-c2ccc(O[C@H](Cc3ccccc3)C(=O)O)cc2)cc1 [Example 38, (2R)-2-{4-[1-(4-Methylphenyl)-1H-pyrrol-2-yl]phenoxy}-3-phenylpropanoic acid]
5.92 | O=C(O)[C@@H](Cc1ccccc1)Oc1ccc(-c2cccn2-c2ccc(Cl)cc2)cc1 [Example 40, (2R)-2-{4-[1-(4-Chlorophenyl)-1H-pyrrol-2-yl]phenoxy}-3-phenylpropanoic acid]
5.31 | O=C(O)[C@@H](Cc1ccccc1)Oc1ccc(-c2cccn2-c2ccc(C(F)(F)F)cc2)cc1 [Example 42, (2R)-2-{4-[1-(4-Trifluoromethylphenyl)-1H-pyrrol-2-yl]phenoxy}-3-phenylpropanoic acid]
6.48 | Cc1ccc(-c2ccc(O[C@H](Cc3ccccc3)C(=O)O)cc2)n1-c1ccc(Cl)cc1 [Example 44, (2R)-2-{4-[1-(4-chlorophenyl)-5-methyl-1H-pyrrol-2-yl]phenoxy}-3-phenylpropanoic acid]
6.40 | Cc1ccc(-c2ccc(O[C@H](Cc3ccccc3)C(=O)O)cc2)n1-c1ccc(C(F)(F)F)cc1 [Example 46, (2R)-2-{4-[5-Methyl-1-(4-trifluoromethylphenyl)-1H-pyrrol-2-yl]phenoxy}-3-phenylpropanoic acid]
6.44 | Cc1ccc(-c2ccc(O[C@H](Cc3ccccc3)C(=O)O)cc2)n1Cc1ccccc1 [Example 48, (2R)-2-[4-(1-Benzyl-5-methyl-1H-pyrrol-2-yl)phenoxy]-3-phenylpropanoic acid]
6.03 | Cc1ccc(-c2ccc(O[C@@H](Cc3ccccc3)C(=O)O)cc2)n1-c1ccc(Br)cc1 [Example 50, (2S)-2-{4-[1-(4-Bromophenyl)-5-methyl-1H-pyrrol-2-yl]phenoxy}-3-phenylpropanoic acid]
6.51 | Cc1ccc(-c2ccc(O[C@H](Cc3ccccc3)C(=O)O)cc2)n1CCc1ccc(Br)cc1 [Example 52, (2R)-2-(4-{1-[2-(4-bromophenyl)ethan-1-yl]-5-methyl-1H-pyrrol-2-yl}phenoxy)-3-phenylpropanoic acid]

Source: patent US6911468B2, “Tyrosine phosphatase inhibitors” (Takeda Chemical Industries, Ltd., priority 2000, dated 2005)
